Measured values reported in patent US9409864B2, “Sulfonamide TRPA1 receptor antagonists” (ARIO PHARMA LIMITED, priority 2013, dated 2016).

Target: T1, native human TRPA1 receptors (Homo sapiens, UniProt O75762)
T1 construct: stably expressing native human TRPA1 receptors were used; endogenous in cells; host or cells: A549 human lung adenocarcinoma epithelial cell line
Assay: PF-4840154 (1 μM)-induced Ca2+ fluorescence measurements in A549 cell line
Type: cell-based
Settings: for inhibition at 10 µM: 10 μM compound against 1 μM PF-4840154, A549 cells; for IC50: A549 cells
Description: PF-4840154 (1 μM)-Induced Ca^2+ Fluorescence Measurements in A549 Cell Line
Human lung adenocarcinoma epithelial cell line (A549) stably expressing native human TRPA1 receptors were used. The cells were cultured in medium consisting of Eagle's minimal essential medium (EMEM) supplemented with 10% fetal bovine serum (FBS), penicillin (100 IU/ml), streptomycin ([…]), L-glutamine (2 mM), sodium bicarbonate (2.5 g/L) and HEPES (24 mM). Cells were kept at 37° C. in 5% CO2/humidified air. For the experiments the cells were seeded at a density of 16,000 cells/well into 96-well black, clear-bottom plates. After 24 hours incubation the cells were loaded with medium supplemented with 2.5 mM probenecid, 3 μM of the calcium sensitive fluorescent dye Fluo-4 AM and 0.01% pluronic acid, for 30 min at 37° C. Afterwards the loading solution was aspirated and 100 μl/well of assay buffer: Hank's Balanced Salt Solution (HBSS) supplemented with 2.5 mM probenecid and 500 μM Brilliant Black (Aldrich) was added. Stock solutions (100 mM) of ligands were made in Dimethyl Sulfoxide (DMSO) and stored at −20° C. Serial dilutions of ligands for experimental use were made in HBSS buffer. After placing both plates (cell culture and compound plate) into the FlexStation II (Molecular Device, Union City, Calif. 94587, US), fluorescence changes were measured. On-line additions were carried out in a volume of […]. To facilitate drug diffusion into the wells in antagonist type experiments, the studies were performed at 36.5° C. and three cycles of mixing (25 μl from each well moved up and down 3 times) were performed immediately after antagonist injection to the wells. All exemplified compounds were tested alone (to address residual agonistic activity) and against 1 μM of PF-4840154 to address inhibitory activity at the initial concentration of 10 μM. For selected examples the entire inhibitory concentration-response curves were constructed and the IC50 value calculated.
PF-4840154 (1 μM) increased [Ca^2+] in the vast majority (95%) of cultured cells which were thereby identified as TRPA1 expressing cells.

[1] = against PF-4840154 (1 μM)-evoked [Ca2+]i mobilization
[2] = against PF-4840154 (1 μM), cells printed in μM

T1 sequence (O75762 whole entry): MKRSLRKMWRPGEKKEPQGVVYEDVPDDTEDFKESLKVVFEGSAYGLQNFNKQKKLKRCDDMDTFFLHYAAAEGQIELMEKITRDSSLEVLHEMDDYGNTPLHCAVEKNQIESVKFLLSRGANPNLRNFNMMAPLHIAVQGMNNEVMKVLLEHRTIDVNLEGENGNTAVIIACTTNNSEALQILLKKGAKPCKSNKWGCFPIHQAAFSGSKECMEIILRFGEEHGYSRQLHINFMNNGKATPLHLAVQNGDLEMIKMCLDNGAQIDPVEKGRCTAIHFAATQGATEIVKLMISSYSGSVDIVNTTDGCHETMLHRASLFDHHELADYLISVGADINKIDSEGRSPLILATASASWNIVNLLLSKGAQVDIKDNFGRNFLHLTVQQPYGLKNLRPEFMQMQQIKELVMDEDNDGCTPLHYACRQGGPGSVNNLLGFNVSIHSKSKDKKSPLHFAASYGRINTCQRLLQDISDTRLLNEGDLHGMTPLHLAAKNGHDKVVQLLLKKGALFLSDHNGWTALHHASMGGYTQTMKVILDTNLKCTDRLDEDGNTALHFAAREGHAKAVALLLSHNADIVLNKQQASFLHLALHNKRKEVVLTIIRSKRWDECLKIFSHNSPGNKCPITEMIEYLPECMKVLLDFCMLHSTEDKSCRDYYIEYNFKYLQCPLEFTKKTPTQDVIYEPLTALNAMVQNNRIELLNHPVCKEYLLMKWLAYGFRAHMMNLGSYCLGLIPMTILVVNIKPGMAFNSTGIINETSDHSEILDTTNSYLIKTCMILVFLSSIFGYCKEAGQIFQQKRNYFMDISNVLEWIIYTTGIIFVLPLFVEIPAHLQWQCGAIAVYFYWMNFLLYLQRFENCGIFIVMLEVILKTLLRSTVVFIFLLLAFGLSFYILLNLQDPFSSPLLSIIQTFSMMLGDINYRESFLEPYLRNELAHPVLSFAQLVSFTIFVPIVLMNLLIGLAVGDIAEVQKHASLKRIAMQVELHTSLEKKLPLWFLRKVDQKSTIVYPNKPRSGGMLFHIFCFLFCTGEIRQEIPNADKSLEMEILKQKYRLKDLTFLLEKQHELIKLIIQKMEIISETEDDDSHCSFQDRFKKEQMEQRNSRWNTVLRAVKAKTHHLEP

For `C=C(C(=O)NCc1ccnc(-c2ccc(OC(F)(F)F)cc2)c1)N(C)S(=O)(=O)c1ccc(F)cc1` [Example 2, 2-[(4-fluorophenyl)sulfonyl-methyl-amino]-N-[[2-[4-(trifluoromethoxy)phenyl]-4-pyridyl]methyl]prop-2-enamide], which inhibition at 10 µM is on record?
Its inhibition at 10 µM is 98%.

What about the IC50 [1] of the same compound?
The IC50 was 0.135 µM.

What does the source list for `C=C(C(=O)NCc1ccnc(-c2ccc(OC(F)(F)F)cc2)c1)N(CC)S(=O)(=O)c1ccc(F)cc1` [Example 3, 2-[(4-fluorophenyl)sulfonyl-ethyl-amino]-N-[[2-[4-(trifluoromethoxy)phenyl]-4-pyridyl]methyl]prop-2-enamide]?
inhibition at 10 µM: 95%; IC50 [1]: 0.093 µM

What does the source list for `C=C(C(=O)NCc1ccnc(-c2ccc(OC(F)(F)F)cc2)c1)N(C)S(=O)(=O)c1ccc(C)cc1` [Example 6, 2-(methyl(p-tolylsulfonyl)amino)-N-[[2-[4-(trifluoromethoxy)phenyl]-4-pyridyl]methyl]prop-2-enamide]?
inhibition at 10 µM: 100%; IC50 [1]: 0.355 µM

Which inhibition at 10 µM does the source give for `C=C(C(=O)NCc1cccc(-c2ccc(C(F)(F)F)cc2)c1)N(CC)S(=O)(=O)c1ccc(F)cc1` [Example 8, 2-[ethyl-(4-fluorophenyl)sulfonyl-amino]-N-[[3-[4-(trifluoromethyl)phenyl]phenyl]methyl]prop-2-enamide] here?
The inhibition at 10 µM was 100%.

What about the IC50 [1] of the same compound?
The IC50 was 0.076 µM.

Which inhibition at 10 µM does the source give for `C=C(C(=O)NCc1cccc(-c2ccc(C(F)(F)F)cc2)c1)N(C)S(=O)(=O)c1ccc(Cl)cc1` [Example 9, 2-[(4-chlorophenyl)sulfonyl-methyl-amino]-N-[[3-[4-(trifluoromethyl)phenyl]phenyl]methyl]prop-2-enamide] here?
Its inhibition at 10 µM is 98%.

And the IC50 [1]?
The IC50 was 0.068 µM.

How did the inhibition at 10 µM turn out when `C=C(C(=O)NCc1ccnc(-c2ccc(C(F)(F)F)cc2)c1)N(CC)S(=O)(=O)c1ccc(Cl)s1` [Example 12, 2-[(5-chloro-2-thienyl)sulfonyl-ethyl-amino]-N-[[2-[4-(trifluoromethyl)phenyl]-4-pyridyl]methyl]prop-2-enamide] was run?
The inhibition at 10 µM was 100%.

And the IC50 [1]?
The IC50 was 0.033 µM.

What does the source list for `C=C(C(=O)NCc1cc(-c2ccc(C(F)(F)F)cc2)nc(N2CCCC2)c1)N(C)S(=O)(=O)c1ccc(Cl)cc1` [Example 13, 2-[(4-chlorophenyl)sulfonyl-methyl-amino]-N-[[2-pyrrolidin-1-yl-6-[4-(trifluoromethyl)phenyl]-4-pyridyl]methyl]prop-2-enamide]?
inhibition at 10 µM: 99%; IC50 [1]: 0.182 µM

What does the source list for `C=C(C(=O)NCc1cc(-c2ccc(OC(F)(F)F)cc2)nc(N2CCOCC2)c1)N(C)S(=O)(=O)c1ccc(Cl)cc1` [Example 16, 2-[(4-chlorophenyl)sulfonyl-methyl-amino]-N-[[2-morpholino-6-[4-(trifluoromethoxy)phenyl]-4-pyridyl]methyl]prop-2-enamide]?
inhibition at 10 µM: 99%; IC50 [1]: 0.457 µM

With `C=C(C(=O)NCc1cc(-c2ccc(OC(F)(F)F)cc2)nc(N2CCOCC2)c1)N(CC)S(=O)(=O)c1ccc(Cl)cc1` [Example 17, 2-[(4-chlorophenyl)sulfonyl-ethyl-amino]-N-[[2-morpholino-6-[4-(trifluoromethoxy)phenyl]-4-pyridyl]methyl]prop-2-enamide] as the compound, how does the inhibition at 10 µM read?
Its inhibition at 10 µM is 98%.

What about the IC50 [1] of the same compound?
The IC50 was 0.12 µM.

What does the source list for `C=C(C(=O)NCc1cc(-c2ccc(OC(F)(F)F)cc2)nc(N2CCCC2)c1)N(CC)S(=O)(=O)c1ccc(F)cc1` [Example 18, 2-[ethyl-(4-fluorophenyl)sulfonyl-amino]-N-[[2-pyrrolidin-1-yl-6-[4-(trifluoromethoxy)phenyl]-4-pyridyl]methyl]prop-2-enamide]?
inhibition at 10 µM: 100%; IC50 [1]: 0.093 µM

Which results are given for `C=C(C(=O)NCc1cc(-c2ccc(OC(F)(F)F)cc2)nc(-c2ccc(OC(F)(F)F)cc2)c1)N(C)S(=O)(=O)c1ccc(Cl)cc1` [Example 20, N-[[2,6-bis[4-(trifluoromethoxy)phenyl]-4-pyridyl]methyl]-2-[(4-chlorophenyl)sulfonyl-methyl-amino]prop-2-enamide]?
inhibition at 10 µM: 96%; IC50 [1]: 0.251 µM

Which inhibition at 10 µM does the source give for `C/C=C(/C(=O)NCc1ccnc(-c2ccc(OC(F)(F)F)cc2)c1)N(C)S(=O)(=O)c1ccc(F)cc1` [Example 21, (Z)-2-[(4-fluorophenyl)sulfonyl-methyl-amino]-N-[[2-[4-(trifluoromethoxy)phenyl]-4-pyridyl]methyl]but-2-enamide] here?
The inhibition at 10 µM was 100%.

And the IC50 [1]?
Its IC50 is 0.323 µM.

With `C/C=C(/C(=O)NCc1ccnc(-c2ccc(OC(F)(F)F)cc2)c1)N(CC)S(=O)(=O)c1ccc(F)cc1` [Example 22, (Z)-2-[ethyl-(4-fluorophenyl)sulfonyl-amino]-N-[[2-[4-(trifluoromethoxy)phenyl]-4-pyridyl]methyl]but-2-enamide] as the compound, how does the inhibition at 10 µM read?
Its inhibition at 10 µM is 97%.

What about the IC50 [1] of the same compound?
Its IC50 is 0.246 µM.

Which results are given for `C/C=C(/C(=O)NCc1cccc(-c2ccc(C(F)(F)F)cc2)c1)N(C)S(=O)(=O)c1ccc(Cl)cc1` [Example 23, (Z)-2-[(4-chlorophenyl)sulfonyl-methyl-amino]-N-[[3-[4-(trifluoromethyl)phenyl]phenyl]methyl]but-2-enamide]?
inhibition at 10 µM: 98%; IC50 [1]: 0.437 µM

With `C/C=C(/C(=O)NCc1cccc(-c2ccc(C(F)(F)F)cc2)c1)N(CC)S(=O)(=O)c1ccc(Cl)cc1` [Example 24, (Z)-2-[(4-chlorophenyl)sulfonyl-ethyl-amino]-N-[[3-[4-(trifluoromethyl)phenyl]phenyl]methyl]but-2-enamide] as the compound, how does the inhibition at 10 µM read?
The inhibition at 10 µM was 97%.

What about the IC50 [1] of the same compound?
The IC50 was 0.724 µM.

Which inhibition at 10 µM does the source give for `CCN(C1(C(=O)NCc2ccnc(-c3ccc(C(F)(F)F)cc3)c2)CC1)S(=O)(=O)c1ccc(F)cc1` [Example 25, 1-[ethyl-(4-fluorophenyl)sulfonyl-amino]-N-[[2-[4-(trifluoromethyl)phenyl]-4-pyridyl]methyl]cyclopropanecarboxamide] here?
Its inhibition at 10 µM is 100%.

What about the IC50 [1] of the same compound?
The IC50 was 0.076 µM.

What does the source list for `CCN(C1(C(=O)NCc2ccnc(-c3ccc(OC(F)(F)F)cc3)c2)CC1)S(=O)(=O)c1ccc(Cl)cc1` [Example 27, 1-[(4-chlorophenyl)sulfonyl-ethyl-amino]-N-[[2-[4-(trifluoromethoxy)phenyl]-4-pyridyl]methyl]cyclopropanecarboxamide]?
inhibition at 10 µM: 100%; IC50 [1]: 0.135 µM

Which results are given for `CCN(C1(C(=O)NCc2ccnc(-c3ccc(OC(F)(F)F)cc3)c2)CC1)S(=O)(=O)c1ccc(Cl)s1` [Example 28, 1-[(5-chloro-2-thienyl)sulfonyl-ethyl-amino]-N-[[2-[4-(trifluoromethoxy)phenyl]-4-pyridyl]methyl]cyclopropanecarboxamide]?
inhibition at 10 µM: 100%; IC50 [1]: 0.129 µM

For `CCN(C1(C(=O)NCc2cccc(-c3ccc(C(F)(F)F)cc3)c2)CC1)S(=O)(=O)c1ccc(F)cc1` [Example 29, 1-[ethyl-(4-fluorophenyl)sulfonyl-amino]-N-[[3-[4-(trifluoromethyl)phenyl]phenyl]methyl]cyclopropanecarboxamide], which inhibition at 10 µM is on record?
The inhibition at 10 µM was 100%.

What about the IC50 [1] of the same compound?
The IC50 was 0.138 µM.

How did the inhibition at 10 µM turn out when `CCN(C1(C(=O)NCc2cccc(-c3ccc(OC(F)(F)F)cc3)c2)CC1)S(=O)(=O)c1ccc(F)cc1` [Example 31, 1-[ethyl-(4-fluorophenyl)sulfonyl-amino]-N-[[3-[4-(trifluoromethoxy)phenyl]phenyl]methyl]cyclopropanecarboxamide] was run?
The inhibition at 10 µM was 100%.

What about the IC50 [1] of the same compound?
The IC50 was 0.057 µM.

Which inhibition at 10 µM does the source give for `O=C(NCc1cc(-c2ccc(C(F)(F)F)cc2)nc(N2CCCC2)c1)C1(NS(=O)(=O)c2ccc(F)cc2)CC1` [Example 32, 1-[(4-fluorophenyl)sulfonylamino]-N-[[2-pyrrolidin-1-yl-6-[4-(trifluoromethyl)phenyl]-4-pyridyl]methyl] cyclopropanecarboxamide] here?
Its inhibition at 10 µM is 80%.

What about the IC50 [2] of the same compound?
Its IC50 is over 4 µM.

How did the inhibition at 10 µM turn out when `O=C(NCc1cc(-c2ccc(OC(F)(F)F)cc2)nc(N2CCCC2)c1)C1(NS(=O)(=O)c2ccc(F)cc2)CC1` [Example 33, 1-[(4-fluorophenyl)sulfonylamino]-N-[[2-pyrrolidin-1-yl-6-[4-(trifluoromethoxy)phenyl]-4-pyridyl]methyl]cyclopropanecarboxamide] was run?
Its inhibition at 10 µM is 55%.

What about the IC50 [2] of the same compound?
The IC50 was over 2 µM.

Which inhibition at 10 µM does the source give for `C=C(C(=O)NCc1ccnc(-c2ccc(C(F)(F)F)cc2)c1)N(CC)S(=O)(=O)c1ccc(F)c(F)c1` [Example 35, 2-[(3,4-difluorophenyl)sulfonyl-ethyl-amino]-N-[[2-[4-(trifluoromethyl)phenyl]-4-pyridyl]methyl]prop-2-enamide] here?
Its inhibition at 10 µM is 100%.

What about the IC50 [1] of the same compound?
The IC50 was 0.058 µM.

`C=C(C(=O)NCc1ccnc(-c2ccc(C(F)(F)F)cc2)c1)N(CC)S(=O)(=O)c1cccc(F)c1` [Example 36] was tested. Which inhibition at 10 µM did it give?
The inhibition at 10 µM was 100%.

And the IC50 [1]?
The IC50 was 0.118 µM.
